Source: the supplement of paper PMC11208160

Assay: recombinant UMI read abundance after kanamycin selection (control-corrected) (log10(CPM+1)); higher = more efficient recombination; extreme values may be limits of the assay; sequences stand for … in AGTGCAGAGAAAATCGGCCAGTTTTCTCTGCCTGCAGTCCGCATGCCGTGGGACCCCTTGGGTTCTAACCTGTTGCCTAGATTTATGCAGCGGACTGCCTTTCTCCCAAAGTGATAAACCGG…AGGTTGGTTTCACT; site = the 11-nt donor
Outline: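 Values, expressed as log10(CPM+1), derive from recombinant UMI counts converted to CPM, averaged across replicates and scaled by control-derived factors. Plating was with IPTG (0.07 mM) plus kanamycin or unselected, two replicates each. The screen pooled donor and donor-binding-loop pairs for the IS621 bridge recombinase in Escherichia coli.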
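Also: IS621 bridge recombinase in Escherichia coli cells against a fixed T5 target plasmid.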

First: TGATAGCCATGGACCGGTTTTCCCGGTAATCCGTATTTGGA (site TGATAGCCTTC)
Second: TGATAGGCATGGACCGGTTTTCCCGGTAATCCGTATTTGGT (site TGATAGGCTAC)
The “recombinant UMI read abundance (log10)” value of the first is lower: 0.0136 for the first, 0.902 for the second.

“TGATAGGCATGGACCGGTTTTCCCGGTAATCCGTATTTGGT (site TGCTAGGCTAC)” and “TGATAGGCATGGACCGGTTTTCCCGGTAATCCGTATTTGGT (site TGGTAGGCTAC)” are within 0.2 log units of each other in “recombinant UMI read abundance (log10)” value: 0.0143 for the first, 0.0189 for the second.

“TGATAGGCATGGACCGGTTTTCCCGGTAATCCGTATTTGGT (site TGTTAGGCTAC)” and “TGATCATCATGGACCGGTTTTCCCGGTAATCCGTATTTGGT (site CGATCATCTAG)” are within 0.2 log units of each other in “recombinant UMI read abundance (log10)” value: 0.02 for the first, 0 for the second.

Compared with “TGATCATCATGGACCGGTTTTCCCGGTAATCCGTATTTGGT (site TGATCATCTAC)”, “TGCAAGTCATGGACCGGTTTTCCCGGTAATCCGTATTTGGC (site TGCAAGTCTGC)” is higher in “recombinant UMI read abundance (log10)” value: 1.42 for the first, 2.11 for the second.

Compared with “TGCACACCATGGACCGGTTTTCCCGGTAATCCGTATTTGAC (site TGAACACCTGT)”, “TGCACACCATGGACCGGTTTTCCCGGTAATCCGTATTTGAC (site TGCACACCTGT)” is higher in “recombinant UMI read abundance (log10)” value: 0 for the first, 0.51 for the second.

“TGCACACCATGGACCGGTTTTCCCGGTAATCCGTATTTGAC (site TGGACACCTGT)” and “TGCACACCATGGACCGGTTTTCCCGGTAATCCGTATTTGAC (site TGTACACCTGT)” are the same in “recombinant UMI read abundance (log10)” value: 0 for the first, 0 for the second.

Going from “TGCAGGGCATGGACCGGTTTTCCCGGTAATCCGTATTTGCC (site TGCAGGGCTGG)” to “TGCAGTGCATGGACCGGTTTTCCCGGTAATCCGTATTTGTT (site TGCAGTGCTAA)”, the “recombinant UMI read abundance (log10)” value falls from 1.82 to 0.416.

Compared with “TGCCCCACATGGACCGGTTTTCCCGGTAATCCGTATTTGAC (site TGCCCCACTGT)”, “TGCCGGCCATGGACCGGTTTTCCCGGTAATCCGTATTTGCC (site TGCCGGCCTGG)” is lower in “recombinant UMI read abundance (log10)” value: 1.39 for the first, 0 for the second.

“TGCCGGCCATGGACCGGTTTTCCCGGTAATCCGTATTTGGA (site TGCCGGCCTTC)” and “TGCCTTTCATGGACCGGTTTTCCCGGTAATCCGTATTTGAC (site AGCCTTTCTGT)” are within 0.2 log units of each other in “recombinant UMI read abundance (log10)” value: 0.0137 for the first, 0 for the second.

“TGCCTTTCATGGACCGGTTTTCCCGGTAATCCGTATTTGAC (site CGCCTTTCTGT)” and “TGCCTTTCATGGACCGGTTTTCCCGGTAATCCGTATTTGAC (site GGCCTTTCTGT)” are the same in “recombinant UMI read abundance (log10)” value: 0 for the first, 0 for the second.

Compared with “TGCCTTTCATGGACCGGTTTTCCCGGTAATCCGTATTTGAC (site TGCCTTTCTGT)”, “TGCGGAACATGGACCGGTTTTCCCGGTAATCCGTATTTGTT (site TGCGGAACTAA)” is higher in “recombinant UMI read abundance (log10)” value: 0 for the first, 0.718 for the second.

Compared with “TGCGGCCCATGGACCGGTTTTCCCGGTAATCCGTATTTGCG (site TGCGGCCCTCG)”, “TGCGGTACATGGACCGGTTTTCCCGGTAATCCGTATTTGAG (site TGCGGTACTCT)” is higher in “recombinant UMI read abundance (log10)” value: 0.0374 for the first, 0.757 for the second.

“TGCGGTCCATGGACCGGTTTTCCCGGTAATCCGTATTTGAA (site TGCGGTCCTTT)” and “TGCGGTCCATGGACCGGTTTTCCCGGTAATCCGTATTTGAG (site TGCGGTCCTCT)” are within 0.2 log units of each other in “recombinant UMI read abundance (log10)” value: 0 for the first, 0.0157 for the second.

Going from “TGCTAAGCATGGACCGGTTTTCCCGGTAATCCGTATTTGGT (site TGCTAAGCTAC)” to “TGCTAAGCATGGACCGGTTTTCCCGGTAATCCGTATTTGGT (site TGCTACGCTAC)”, the “recombinant UMI read abundance (log10)” value falls from 0.906 to 0.

“TGCTAAGCATGGACCGGTTTTCCCGGTAATCCGTATTTGGT (site TGCTAGGCTAC)” and “TGCTAAGCATGGACCGGTTTTCCCGGTAATCCGTATTTGGT (site TGCTATGCTAC)” are within 0.2 log units of each other in “recombinant UMI read abundance (log10)” value: 0.0128 for the first, 0.0152 for the second.

Going from “TGCTAGACATGGACCGGTTTTCCCGGTAATCCGTATTTGGT (site TGCTAGACTAC)” to “TGCTAGACATGGACCGGTTTTCCCGGTAATCCGTATTTGGT (site TGCTAGCCTAC)”, the “recombinant UMI read abundance (log10)” value falls from 0.462 to 0.00952.

Compared with “TGCTAGACATGGACCGGTTTTCCCGGTAATCCGTATTTGGT (site TGCTAGGCTAC)”, “TGCTAGACATGGACCGGTTTTCCCGGTAATCCGTATTTGGT (site TGCTAGTCTAC)” is higher in “recombinant UMI read abundance (log10)” value: 0.0111 for the first, 0.357 for the second.

“TGCTAGGCATGGACCGGTTTTCCCGGTAATCCGTATTTGGT (site AGCTAGGCTAC)” and “TGCTAGGCATGGACCGGTTTTCCCGGTAATCCGTATTTGGT (site CGCTAGGCTAC)” are within 0.2 log units of each other in “recombinant UMI read abundance (log10)” value: 0.0183 for the first, 0.019 for the second.

“TGCTAGGCATGGACCGGTTTTCCCGGTAATCCGTATTTGGT (site GGCTAGGCTAC)” and “TGCTAGGCATGGACCGGTTTTCCCGGTAATCCGTATTTGGT (site TACTAGGCTAC)” are within 0.2 log units of each other in “recombinant UMI read abundance (log10)” value: 0.0224 for the first, 0.00634 for the second.

“TGCTAGGCATGGACCGGTTTTCCCGGTAATCCGTATTTGGT (site TCCTAGGCTAC)” and “TGCTAGGCATGGACCGGTTTTCCCGGTAATCCGTATTTGGT (site TGATAGGCTAC)” are within 0.2 log units of each other in “recombinant UMI read abundance (log10)” value: 0.0105 for the first, 0.00571 for the second.

“TGCTAGGCATGGACCGGTTTTCCCGGTAATCCGTATTTGGT (site TGCAAGGCTAC)” and “TGCTAGGCATGGACCGGTTTTCCCGGTAATCCGTATTTGGT (site TGCCAGGCTAC)” are within 0.2 log units of each other in “recombinant UMI read abundance (log10)” value: 0 for the first, 0.00869 for the second.

“TGCTAGGCATGGACCGGTTTTCCCGGTAATCCGTATTTGGT (site TGCGAGGCTAC)” and “TGCTAGGCATGGACCGGTTTTCCCGGTAATCCGTATTTGGT (site TGCTAAGCTAC)” are within 0.2 log units of each other in “recombinant UMI read abundance (log10)” value: 0.00468 for the first, 0.0704 for the second.

“TGCTAGGCATGGACCGGTTTTCCCGGTAATCCGTATTTGGT (site TGCTACGCTAC)” and “TGCTAGGCATGGACCGGTTTTCCCGGTAATCCGTATTTGGT (site TGCTAGACTAC)” are within 0.2 log units of each other in “recombinant UMI read abundance (log10)” value: 0.0185 for the first, 0.0977 for the second.

“TGCTAGGCATGGACCGGTTTTCCCGGTAATCCGTATTTGGT (site TGCTAGCCTAC)” and “TGCTAGGCATGGACCGGTTTTCCCGGTAATCCGTATTTGGT (site TGCTAGGCTAA)” are within 0.2 log units of each other in “recombinant UMI read abundance (log10)” value: 0.0225 for the first, 0.0155 for the second.

“TGCTAGGCATGGACCGGTTTTCCCGGTAATCCGTATTTGGT (site TGCTAGGCTAC)” and “TGCTAGGCATGGACCGGTTTTCCCGGTAATCCGTATTTGGT (site TGCTAGGCTAG)” are within 0.2 log units of each other in “recombinant UMI read abundance (log10)” value: 0.108 for the first, 0.0108 for the second.

“TGCTAGGCATGGACCGGTTTTCCCGGTAATCCGTATTTGGT (site TGCTAGGCTAT)” and “TGCTAGGCATGGACCGGTTTTCCCGGTAATCCGTATTTGGT (site TGCTAGGCTCC)” are within 0.2 log units of each other in “recombinant UMI read abundance (log10)” value: 0.0134 for the first, 0.0152 for the second.

“TGCTAGGCATGGACCGGTTTTCCCGGTAATCCGTATTTGGT (site TGCTAGGCTGC)” and “TGCTAGGCATGGACCGGTTTTCCCGGTAATCCGTATTTGGT (site TGCTAGGCTTC)” are within 0.2 log units of each other in “recombinant UMI read abundance (log10)” value: 0.0103 for the first, 0.0129 for the second.

“TGCTAGGCATGGACCGGTTTTCCCGGTAATCCGTATTTGGT (site TGCTAGTCTAC)” and “TGCTAGGCATGGACCGGTTTTCCCGGTAATCCGTATTTGGT (site TGCTATGCTAC)” are within 0.2 log units of each other in “recombinant UMI read abundance (log10)” value: 0.00544 for the first, 0.00951 for the second.

“TGCTAGGCATGGACCGGTTTTCCCGGTAATCCGTATTTGGT (site TGCTCGGCTAC)” and “TGCTAGGCATGGACCGGTTTTCCCGGTAATCCGTATTTGGT (site TGCTGGGCTAC)” are within 0.2 log units of each other in “recombinant UMI read abundance (log10)” value: 0.0253 for the first, 0.0136 for the second.

“TGCTAGGCATGGACCGGTTTTCCCGGTAATCCGTATTTGGT (site TGCTTGGCTAC)” and “TGCTAGGCATGGACCGGTTTTCCCGGTAATCCGTATTTGGT (site TGGTAGGCTAC)” are within 0.2 log units of each other in “recombinant UMI read abundance (log10)” value: 0.0132 for the first, 0.00942 for the second.

“TGCTAGGCATGGACCGGTTTTCCCGGTAATCCGTATTTGGT (site TGTTAGGCTAC)” and “TGCTAGGCATGGACCGGTTTTCCCGGTAATCCGTATTTGGT (site TTCTAGGCTAC)” are within 0.2 log units of each other in “recombinant UMI read abundance (log10)” value: 0.026 for the first, 0.0121 for the second.

“TGCTAGTCATGGACCGGTTTTCCCGGTAATCCGTATTTGGT (site TGCTAGACTAC)” and “TGCTAGTCATGGACCGGTTTTCCCGGTAATCCGTATTTGGT (site TGCTAGCCTAC)” are within 0.2 log units of each other in “recombinant UMI read abundance (log10)” value: 0.00505 for the first, 0.0102 for the second.

First: TGCTAGTCATGGACCGGTTTTCCCGGTAATCCGTATTTGGT (site TGCTAGGCTAC)
Second: TGCTAGTCATGGACCGGTTTTCCCGGTAATCCGTATTTGGT (site TGCTAGTCTAC)
The “recombinant UMI read abundance (log10)” value of the first is lower: 0.00963 for the first, 1.07 for the second.

“TGCTCAGCATGGACCGGTTTTCCCGGTAATCCGTATTTGGG (site AGCTCAGCTCC)” and “TGCTCAGCATGGACCGGTTTTCCCGGTAATCCGTATTTGGG (site CGCTCAGCTCC)” are within 0.2 log units of each other in “recombinant UMI read abundance (log10)” value: 0.0267 for the first, 0.0151 for the second.

“TGCTCAGCATGGACCGGTTTTCCCGGTAATCCGTATTTGGG (site GGCTCAGCTCC)” and “TGCTCAGCATGGACCGGTTTTCCCGGTAATCCGTATTTGGG (site TGCTCAGCTCC)” are within 0.2 log units of each other in “recombinant UMI read abundance (log10)” value: 0.0391 for the first, 0.00921 for the second.

First: TGCTCGGCATGGACCGGTTTTCCCGGTAATCCGTATTTGAT (site TGCTCGGCTAT)
Second: TGCTCGGCATGGACCGGTTTTCCCGGTAATCCGTATTTGGT (site TGCTAGGCTAC)
The “recombinant UMI read abundance (log10)” value of the first is higher: 0.54 for the first, 0.00732 for the second.

“TGCTCGGCATGGACCGGTTTTCCCGGTAATCCGTATTTGGT (site TGCTCGGCTAC)” and “TGCTCGGCATGGACCGGTTTTCCCGGTAATCCGTATTTGGT (site TGCTGGGCTAC)” are within 0.2 log units of each other in “recombinant UMI read abundance (log10)” value: 0.0236 for the first, 0.00677 for the second.

For “TGCTCGGCATGGACCGGTTTTCCCGGTAATCCGTATTTGGT (site TGCTTGGCTAC)”, the “recombinant UMI read abundance (log10)” value was 0.00594.
